Measurements from the NIST ThermoML archive (doi:10.1016/j.fluid.2006.05.027).
Numbers after ± are expanded uncertainties.

Settings: 298.15 K, Liquid, Vibrating tube method

C=C(C)C1CC=C(C)CC1 (configuration not stated) [1-methyl-4-(1-methylethenyl)cyclohexene]
mass density (7640 kPa): 844 ± 0.7 kg/m3 | mass density (10000 kPa): 845.6 ± 0.7 kg/m3
